The values that follow come from patent US5051431A, “Pyridone nitriles useful in treating cardiovascular disease” (Glaxo Inc., priority 1990, dated 1991).

The test system of assay [1] is rat aorta. Nature of the assay: Rat Aorta Protocol: relaxation of phenylephrine-contracted rat aorta rings (endothelium removed). The assay is classed as cell-based. On the procedure: Such vasorelaxation appears to be related to inhibition of the phosphodiesterase (PDE) isozyme related to the cardiac sarcoplasmic reticulum. Thus, relaxation of rat aorta can be used as a screen to eliminate compounds which are not PDE inhibitors prior to testing for actual inotropic activity.
Rings of rat aorta (endothelium removed) were prepared for the measurement of isometric force in isolated tissue organ chambers essentially as previously described by T. J. Rimele et al in the Journal of Pharmacol. Exo. Ther. 245:102-111 (1988). The experimental portion of the protocol began with the addition of methylene blue (1×10^-5 M) and propranolol (1×10^-6 M) to each organ chamber to inhibit basal cGMP accumulation due to soluble guanylate cyclase and beta-adrenoceptors.Phenylephrine (1×10^-7 M) was then added and the rings were allowed to obtain a stable contractile response after which time, the test compound was added in a cumulative fashion. The relaxation induced by each concentration of the test compound was expressed as a percentage of the maximal relaxation produced by nitroprusside (1×10^-4 M). The results were graphically represented as a plot of the percentage relaxation vs. the negative log of the molar concentration of the test compound. […]

Assay [2] concerns barbiturate-anesthetized dogs. Put plainly: Anesthetized Dog: inotropic effect (increase in baseline left ventricular dP/dt). The assay is classed as in vivo. On the procedure:
(§1) Inotropic effects were evaluated in barbiturate-anesthetized dogs by differentiating left intraventricular pressure. This procedure was carried out essentially as described by M. K. Grizzel et al in the FASEB Journal, Vol. 3, page 1039, abstract 4728 (1989). Purpose breed mongrel dogs (14-20 kg) of either sex were anesthetized with a mixture of sodium pentobarbital (15 mg/kg) and sodium barbital (300 mg/kg) i.v., intubated with a cuffed endotracheal tube and ventilated with a respirator (Harvard Apparatus, model 613, South Natick, Mass.) with room air (22 rpm, 10-12 ml/kg/stroke). […] Cardiac output was determined via thermodilution with a Spectramed computer (Starcom., Oxnard, Calif.) and a 5F Swan Ganz catheter which was inserted into the right jugular vein and positioned in the pulmonary artery. […] A lead II electrocardiogram was measured using subcutaneous electrodes. […] Rectal temperature was monitored and maintained at 37°-38° C. with a heating pad (Baxter Health Care model K20, McGaw Park, Ill.). All variables were recorded using a Gould 3800S physiograph.
(§2) Isoproterenol (0.1-0.5 μg/kg) was injected i.v. into the cephalic vein at 10 min intervals except for when the test drug infusion was begun. […] Inhibition of the isoproterenol responses on contractility (dP/dt), heart rate and diastolic blood pressure were determined at each dose of test compound. […]

For assay [3], the system named is barbiturate-anesthetized dogs. Put plainly: Anesthetized Dog: beta-blocking effect (inhibition of the dP/dt response to isoproterenol). The class given is in vivo. The settings on record: Canis lupus familiaris, iv, infusion, isoproterenol 0.1-0.5 μg/kg i.v. As for the experimental part:
as §1, §2

A further assay deals with guinea pig left atria. Nature of the assay: Guinea Pig Left Atria Test: direct effect on force of atrial contraction. As to conditions: Cavia porcellus, propranolol and phentolamine (1.0 micromolar each) present. The class given is cell-based. As for the experimental part: This test is carried out as generally described by T. P. Kenakin et al in Journal of Cardiovascular Pharmacology 101, 658-666 (1987) and in the Journal of Pharmacology and Experimental Therapeutics, Vol. 213, 406-413 (1980).
Male Hartley guinea-pigs (300-400 grams) were sacrificed by cervical dislocation or carbon dioxide asphyxiation. The hearts were immediately removed and placed in oxygenated Krebs-Henseleit buffer (composition (millimolar): Na^+ 143, K^+ 5.9, Ca^++ 1.25, Mg^++ 1.2, Cl^- 128, HCO3^- 25, SO4^-- 1.2, H2 PO4^- 1.0, and D-glucose 10). Left atria were dissected away from the remainder of the heart and mounted on holders against platinum punctate electrodes. The mounted atria were placed in tissue baths maintained at 31° C. and oxygenated with 95% 02 -5% CO2 under 1.0 gram resting tension. […] Contractions were detected with a force displacement transducer and recorded on a physiograph. […]
Direct effects of the test compounds on the force of atrial contraction were observed and recorded after addition of the compounds to the tissue bath. […] Responses to the test compounds and forskolin were expressed as a percentage of the maximal response to forskolin. EC50 values for the test compounds were calculated as the concentration of the compound necessary to produce an inotropic response half that of the maximal response produced by the test compound.

Another assay deals with T1, Beta-1 adrenoceptor (Rattus norvegicus, UniProt P18090).
T1 construct: rat brain cortices were used as the source of membrane vesicles; from tissue; host or cells: rat brain cortex membranes
T1 sequence (P18090 whole entry): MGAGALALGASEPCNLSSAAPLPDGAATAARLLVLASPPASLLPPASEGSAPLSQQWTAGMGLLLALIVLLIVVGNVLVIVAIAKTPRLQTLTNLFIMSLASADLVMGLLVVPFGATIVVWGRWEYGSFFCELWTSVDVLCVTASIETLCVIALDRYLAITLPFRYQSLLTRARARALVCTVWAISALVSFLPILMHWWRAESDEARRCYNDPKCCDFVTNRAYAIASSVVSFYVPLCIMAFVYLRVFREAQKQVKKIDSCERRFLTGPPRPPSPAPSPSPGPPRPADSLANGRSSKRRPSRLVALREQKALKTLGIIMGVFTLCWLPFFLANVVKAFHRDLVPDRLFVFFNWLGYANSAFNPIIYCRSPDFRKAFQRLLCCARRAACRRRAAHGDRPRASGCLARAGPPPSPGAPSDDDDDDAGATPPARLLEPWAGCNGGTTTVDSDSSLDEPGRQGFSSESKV
Put plainly: Beta Adrenoceptor Binding Assays: displacement of [I-125]-Pindolol from rat brain cortical membranes. The settings on record: pH 7.6, 22° C., two hr, read-out: pIC50 (negative log of the IC50) (converted). On the procedure:
Because of its receptor density rat brain cortices were used as the source of membrane vesicles to be used in the receptor binding assays. Freshly excised cortexes were homogenized in 20 volumes (w/v) 50 mM TRIS HCl Buffer (pH 7.5), with a glass/Teflon homogenizer following the procedure previously described by T. J. Rimele in J. Pharmacol Exp. Ther. 239: 1-8, 1986. Beta-1 adrenoceptor binding activity was determined following methods described by M. H. Randall, et al, J. Med. Chem. 20: 1090-1094, 1977, and J. Homberger, et al in Mol. Pharmacol. 20: 453-469, 1981. The incubation mixture consisted of; 26 μl of 50 mM TRIS/HCl, 10 mM MgCl2 pH 7.6 buffer, 25 μl of test drug or 10-6 pindolol to define nonspecific binding, 100 μl of [I-125]-Pindolol (2200Ci/mM) at a final concentration of 10-9, and 100 μl of brain cortical membranes. The mixture was incubated at RT (22 ° C.) for two hr in the dark. The reaction was stopped by filtration of the mixture through buffer soaked glass fiber membranes (GF/B) using an cell harvesting device (Skatron Inc.). The radioactivity in each filter containing the trapped membrane particles was counted with a gamma counter. […] All specific binding values obtained in the presence of test compounds were expressed as the percentage of specific binding displaced by the individual agents. […]

For assay [4], the system named is rat aorta. As to conditions: literature, R. F. Kauffman et al., J. Pharmacol. Exp. Ther. 242:864-872 (1987); cited from earlier work.

Regarding `Cc1[nH]c(=O)c(C#N)cc1-c1ccc(OCCCC(=O)NCCNCC(O)COc2ccccc2)cc1` (stereo not shown) [Example 2, 5-{4-[N-[2-(3-Phenoxy-2-hydroxypropylamino)ethyl]carbamoylpropyloxy]phenyl}-6-methyl-2-oxo-1,2-dihydro-3-pyridinecarbonitrile], the Emax at 100 µM is 97% in the assay on rat aorta [1] (Rattus norvegicus, at the highest dose tested (100 micromolar), read-out: maximal response (relaxation as percentage of the maximal relaxation produced by nitroprusside)) and 36% in the assay on guinea pig left atria (at 100 micromolar, read-out: maximal response (percentage of the maximal response to forskolin)). The IC50 in the assay on rat aorta [1] (rat aorta rings, endothelium removed, phenylephrine 1×10^-7 M, methylene blue and propranolol present, read-out: IC50 (concentration of test compound which produced a relaxation equivalent to 50% of the maximal relaxation induced by nitroprusside)) was 23 µM; at Beta-1 adrenoceptor, 0.02 µM. The ED50 in assay [2] (Canis lupus familiaris, iv, infusion, compared to baseline prior to drug infusion, read-out: inotropic ED50 (50% increase in dP/dt)) was 0.04 µmol/kg; in assay [3], 0.055 µmol/kg. Further, the “inotropic effects at higher doses, sensitivity to atenolol” value in assay [2] (higher doses, atenolol) is on record as “not blocked by atenolol”. Moreover, the EC50 in the assay with guinea pig left atria (guinea pig left atria, 31° C., read-out: ED50 (concentration producing an inotropic response half that of the maximal response produced by the test compound)) was 13 µM.
In the case of `CSc1ccc(C(=O)c2[nH]c(=O)[nH]c2C)cc1` [enoximone], the “relaxation of rat aorta” value with rat aorta [4] is “marked relaxation”.
As for `Cc1[nH]c(=O)c(C#N)cc1-c1ccncc1` [milrinone], in the assay on rat aorta [4], the “relaxation of rat aorta” value is “marked relaxation”.
